Molecular target: T1, Vesicular acetylcholine transporter (Homo sapiens, UniProt Q16572)
T1 sequence (Q16572 whole entry): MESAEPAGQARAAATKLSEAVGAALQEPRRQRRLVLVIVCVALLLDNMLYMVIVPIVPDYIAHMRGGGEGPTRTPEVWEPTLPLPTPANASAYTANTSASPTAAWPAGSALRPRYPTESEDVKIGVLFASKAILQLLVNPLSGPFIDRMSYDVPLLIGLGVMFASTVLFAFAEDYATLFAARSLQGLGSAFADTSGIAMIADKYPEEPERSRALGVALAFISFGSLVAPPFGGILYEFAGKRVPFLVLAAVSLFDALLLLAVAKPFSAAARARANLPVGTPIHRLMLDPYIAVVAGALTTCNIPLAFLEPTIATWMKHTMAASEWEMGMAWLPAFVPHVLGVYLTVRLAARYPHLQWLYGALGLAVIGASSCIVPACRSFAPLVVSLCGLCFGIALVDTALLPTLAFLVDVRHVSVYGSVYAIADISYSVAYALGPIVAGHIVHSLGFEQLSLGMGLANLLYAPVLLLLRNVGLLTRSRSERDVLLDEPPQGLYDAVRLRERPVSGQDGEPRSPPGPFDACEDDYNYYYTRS
Assay: Displacement of (-)-[3H]vesamicol from human VAChT expressed in rat PC12 cell membrane after 20 hrs

SMILES	Ki [nM]
Cn1ccc(C(=O)C2CCN([C@@H]3Cc4ccccc4C[C@H]3O)CC2)cc1=O	66
Cn1cccc1C(=O)C1CCN([C@@H]2Cc3c(N)cccc3C[C@H]2O)CC1	39
CN(C)c1ccc(C(=O)C2CCN([C@@H]3Cc4ccccc4C[C@H]3O)CC2)cc1	0.93
CNc1ccc(C(=O)C2CCN([C@@H]3Cc4ccccc4C[C@H]3O)CC2)cc1	3
O=C(c1ccc(OCCF)nc1)C1CCN([C@@H]2Cc3ccccc3C[C@H]2O)CC1	38
Cn1ccc(C(=O)C2CCN([C@@H]3Cc4ccccc4C[C@H]3O)CC2)c1	27
O=C(c1cccnc1F)C1CCN([C@@H]2Cc3ccccc3C[C@H]2O)CC1	13
O=C(c1cccnc1)C1CCN([C@@H]2Cc3ccccc3C[C@H]2O)CC1	24
O=C(c1ncccc1OCCF)C1CCN([C@@H]2Cc3ccccc3C[C@H]2O)CC1	76
COc1cccnc1C(=O)C1CCN([C@@H]2Cc3ccccc3C[C@H]2O)CC1	121
Cn1c(C(=O)C2CCN([C@@H]3Cc4ccccc4C[C@H]3O)CC2)cccc1=O	182
Cn1cccc1C(=O)C1CCN([C@@H]2Cc3ccccc3C[C@H]2O)CC1	18
O=C(c1cncc(F)c1)C1CCN([C@@H]2Cc3ccccc3C[C@H]2O)CC1	10
O=C(c1ccc(F)nc1)C1CCN([C@@H]2Cc3ccccc3C[C@H]2O)CC1	26
Cn1cccc1C(=O)C1CCN([C@@H]2Cc3cccc(N)c3C[C@H]2O)CC1	2310

Source: BindingDB's records for doi:10.1021/jm400664x (Washington University, 2013)
